Activity calls are given as the source filed them.
What was measured:
[1] = Jurkat T cell cytotoxicity, dose response, cytotoxicity control for P. falciparum gametocyte viability project, luminescence (AID 1117277); assay type: functional, cell-based;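 note: potency reflects loss of cellular ATP meaning fewer viable cells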
[2] = P. falciparum late gametocyte killing, dose response, luminescence (AID 1117278); assay type: functional, cell-based;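 note: gametocytes exposed to compound for 24 hours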
[3] = Luminescence-based cell-based high throughput dose response assay to identify activators of the DAF-12 from the parasite S. stercoralis (ssDAF-12).; assay type: functional
[4] = biological target: T1, Oxysterols receptor LXR-beta (Homo sapiens, UniProt P55055); assay: LXR agonists, Gal4 luciferase reporter, dose response, counter-screen for ssDAF-12 agonist project, cell-based, luminescence, HEK293, S. stercoralis campaign (AID 720737); assay type: functional; settings: read-out: IC50 (the source's name)
T1 sequence (P55055 whole entry): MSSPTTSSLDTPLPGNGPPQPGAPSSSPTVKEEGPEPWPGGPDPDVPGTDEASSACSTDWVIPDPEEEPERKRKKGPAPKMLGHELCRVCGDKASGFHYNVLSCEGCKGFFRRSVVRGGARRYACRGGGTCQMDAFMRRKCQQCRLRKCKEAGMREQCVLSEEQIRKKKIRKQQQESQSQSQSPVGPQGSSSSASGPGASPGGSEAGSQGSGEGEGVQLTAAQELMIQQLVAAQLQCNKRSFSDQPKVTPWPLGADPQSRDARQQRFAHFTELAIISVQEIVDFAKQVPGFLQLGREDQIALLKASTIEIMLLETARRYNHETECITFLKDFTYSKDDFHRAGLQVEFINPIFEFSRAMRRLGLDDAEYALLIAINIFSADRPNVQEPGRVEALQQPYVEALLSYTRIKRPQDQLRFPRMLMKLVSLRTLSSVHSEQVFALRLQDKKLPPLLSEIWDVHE

[5] = cytotoxicity in HEK-293T cells, dose response, cytotoxicity control for BCR NF-kB inhibitor project, luminescence, B-cell screen hits (AID 489021); assay type: functional, cell-based;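 note: HEK-293T cells carrying an NF-kB luciferase reporter; cells exposed to compound for about 14 hours before viability readout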
[6] = inhibitors of Vif binding to APOBEC3G peptide, primary screen, biochemical, TR-FRET, GST-Vif 1-94, biotin-A3G peptide, dose response retest (AID 1117319); assay type: functional;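 note: TR-FRET signal of purified GST-Vif binding a biotinylated A3G peptide; inhibitors lower the FRET signal by blocking Vif and A3G binding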
Protein Tat = Protein Tat (Human immunodeficiency virus type 1 group M subtype B (isolate HXB2)(HIV-1), UniProt P04608); assay type: functional;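 note: tat binding to TAR RNA read out by fluorescence polarization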
Protein Tat, sequence (P04608 whole entry): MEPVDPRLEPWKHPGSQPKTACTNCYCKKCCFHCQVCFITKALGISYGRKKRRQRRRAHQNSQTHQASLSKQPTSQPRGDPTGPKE

[7] = cytotoxicity in HMLE control line with eGFP shRNA, dose response, counter-screen for HMLE_sh_ECad selective toxicity project, cell-based, HMLE_sh_eGFP, luminescence (AID 463074); assay type: functional, Homo sapiens;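 note: HMLE human mammary epithelial cells expressing control shRNA against eGFP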
[8] = Luminescence Cell-Based Dose Retest to Confirm Inhibitors of Cancer Stem Cells. [Related pubchem assays (depositor defined):AID2717, AID2721]; assay type: functional; settings: Homo sapiens
[9] = biological target: Heat shock protein HSP 90-alpha (Homo sapiens, UniProt P07900); assay type: functional, organism-based
[10] = biological target: Neurotensin receptor type 1 (Homo sapiens, UniProt P30989); assay type: functional;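 note: Image-based confirmatory dose-response assay measuring agonist activity at NTR1; NTR1-expressing U2OS osteosarcoma cells imaged for beta-arrestin GFP spot formation; agonist potency where compounds increase beta-arrestin recruitment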
Neurotensin receptor type 1, sequence (P30989 whole entry): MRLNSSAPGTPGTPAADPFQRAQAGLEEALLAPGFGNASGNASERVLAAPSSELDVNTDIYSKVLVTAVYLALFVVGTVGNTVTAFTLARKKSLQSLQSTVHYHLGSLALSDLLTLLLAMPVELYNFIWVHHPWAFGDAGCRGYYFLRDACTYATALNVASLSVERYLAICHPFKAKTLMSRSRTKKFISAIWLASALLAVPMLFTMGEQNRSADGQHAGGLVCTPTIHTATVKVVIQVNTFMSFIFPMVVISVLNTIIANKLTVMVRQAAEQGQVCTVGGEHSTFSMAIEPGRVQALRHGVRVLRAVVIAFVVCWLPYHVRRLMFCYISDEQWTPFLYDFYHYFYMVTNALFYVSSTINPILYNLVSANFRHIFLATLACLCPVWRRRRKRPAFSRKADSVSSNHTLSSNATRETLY

[11] = biological target: T2, Mannose-6-phosphate isomerase (Homo sapiens, UniProt P34949); assay: inhibitors of human PMI, primary screen, biochemical, fluorescence intensity, coupled assay (AID 1209)
T2 sequence (P34949 whole entry): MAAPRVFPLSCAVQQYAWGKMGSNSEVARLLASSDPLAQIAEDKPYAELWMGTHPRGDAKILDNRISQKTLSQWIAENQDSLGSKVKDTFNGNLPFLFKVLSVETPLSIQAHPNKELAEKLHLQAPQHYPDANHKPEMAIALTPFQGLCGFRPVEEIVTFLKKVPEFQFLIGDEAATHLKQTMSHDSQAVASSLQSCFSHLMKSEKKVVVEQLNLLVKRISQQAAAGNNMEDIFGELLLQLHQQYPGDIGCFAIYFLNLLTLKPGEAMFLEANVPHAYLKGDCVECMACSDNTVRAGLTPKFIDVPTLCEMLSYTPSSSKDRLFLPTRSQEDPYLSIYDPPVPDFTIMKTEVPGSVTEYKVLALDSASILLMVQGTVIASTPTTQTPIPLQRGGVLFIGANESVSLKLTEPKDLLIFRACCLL

INS1 = assay: beta cell apoptosis inhibitors, cytokine rescue, dose response, luminescence, retest (AID 449756); assay type: functional, cell-based; settings: Rattus norvegicus;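 note: cell death triggered by IL-1 beta plus TNF-alpha plus IFN-gamma mixture; protective hits raise ATP signal compared with cytokine alone wells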
[12] = biological target: Lysosomal acid glucosylceramidase (Homo sapiens, UniProt P04062); assay: Dose response cell-based high throughput screening assay to identify enhancers of beta-glucosidase activity. [Related pubchem assays: 784 ]; assay type: functional
Lysosomal acid glucosylceramidase, sequence (P04062 whole entry): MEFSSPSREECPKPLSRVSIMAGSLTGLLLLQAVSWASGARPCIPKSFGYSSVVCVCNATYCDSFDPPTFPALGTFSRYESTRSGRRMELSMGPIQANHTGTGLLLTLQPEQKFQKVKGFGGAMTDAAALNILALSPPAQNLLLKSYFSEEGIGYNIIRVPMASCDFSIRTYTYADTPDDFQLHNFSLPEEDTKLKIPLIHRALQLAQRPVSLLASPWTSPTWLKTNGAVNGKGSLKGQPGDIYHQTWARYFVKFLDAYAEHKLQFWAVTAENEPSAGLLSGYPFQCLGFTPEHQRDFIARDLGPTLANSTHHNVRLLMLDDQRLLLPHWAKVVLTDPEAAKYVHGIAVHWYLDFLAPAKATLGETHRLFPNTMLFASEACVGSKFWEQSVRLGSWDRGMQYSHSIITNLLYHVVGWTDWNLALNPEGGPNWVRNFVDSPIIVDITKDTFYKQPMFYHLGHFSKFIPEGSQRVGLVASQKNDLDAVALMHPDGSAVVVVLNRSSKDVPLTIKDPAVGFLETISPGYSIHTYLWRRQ

[13] = Luminescence Cell-Based Dose Confirmation HTS to Identify Inhibitors of Polyadenylation.; assay type: functional
Estrogen receptor beta [14] = biological target: T3, Estrogen receptor beta (Homo sapiens, UniProt Q92731); assay: ERβ–SRC-3 coactivator interaction inhibitors, confirmation, orthogonal assay, biochemical, ELISA, streptavidin-HRP readout (AID 1060)
T3 sequence (Q92731 whole entry): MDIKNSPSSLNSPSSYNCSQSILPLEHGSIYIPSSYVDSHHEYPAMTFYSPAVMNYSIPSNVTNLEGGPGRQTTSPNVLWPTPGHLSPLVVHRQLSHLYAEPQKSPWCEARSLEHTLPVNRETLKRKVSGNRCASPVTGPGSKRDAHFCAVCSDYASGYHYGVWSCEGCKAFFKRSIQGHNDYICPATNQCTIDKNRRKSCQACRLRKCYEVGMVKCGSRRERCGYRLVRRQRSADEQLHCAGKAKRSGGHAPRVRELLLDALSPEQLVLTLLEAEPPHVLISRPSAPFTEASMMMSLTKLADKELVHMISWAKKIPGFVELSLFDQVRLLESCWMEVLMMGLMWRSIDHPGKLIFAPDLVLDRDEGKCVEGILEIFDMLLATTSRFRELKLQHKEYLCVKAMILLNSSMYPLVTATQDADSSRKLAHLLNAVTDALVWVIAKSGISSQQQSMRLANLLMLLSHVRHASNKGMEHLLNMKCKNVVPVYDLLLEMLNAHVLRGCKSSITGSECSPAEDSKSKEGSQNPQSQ

Estrogen receptor beta [15] = biological target: T3, Estrogen receptor beta
[16] = biological target: DNA dC->dU-editing enzyme APOBEC-3A (Homo sapiens, UniProt P31941); assay: Dose Response confirmation of small molecule APOBEC3A DNA Deaminase Inhibitors via a fluorescence-based single-stranded DNA deaminase assay. [Related pubchem assays (depositor defined):AID493011, AID493024]; assay type: functional
DNA dC->dU-editing enzyme APOBEC-3A, sequence (P31941 whole entry): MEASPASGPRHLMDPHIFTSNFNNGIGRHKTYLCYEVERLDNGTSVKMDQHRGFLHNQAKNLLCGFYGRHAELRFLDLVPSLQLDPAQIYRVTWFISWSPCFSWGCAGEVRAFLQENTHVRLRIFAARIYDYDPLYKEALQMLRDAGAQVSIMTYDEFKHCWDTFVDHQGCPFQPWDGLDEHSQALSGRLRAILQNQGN

[17] = biological target: DNA dC->dU-editing enzyme APOBEC-3G (Homo sapiens, UniProt Q9HC16); assay type: functional;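 note: Dose-response counterscreen measuring inhibition of APOBEC3G DNA deaminase activity, run while confirming APOBEC3A inhibitors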
DNA dC->dU-editing enzyme APOBEC-3G, sequence (Q9HC16 whole entry): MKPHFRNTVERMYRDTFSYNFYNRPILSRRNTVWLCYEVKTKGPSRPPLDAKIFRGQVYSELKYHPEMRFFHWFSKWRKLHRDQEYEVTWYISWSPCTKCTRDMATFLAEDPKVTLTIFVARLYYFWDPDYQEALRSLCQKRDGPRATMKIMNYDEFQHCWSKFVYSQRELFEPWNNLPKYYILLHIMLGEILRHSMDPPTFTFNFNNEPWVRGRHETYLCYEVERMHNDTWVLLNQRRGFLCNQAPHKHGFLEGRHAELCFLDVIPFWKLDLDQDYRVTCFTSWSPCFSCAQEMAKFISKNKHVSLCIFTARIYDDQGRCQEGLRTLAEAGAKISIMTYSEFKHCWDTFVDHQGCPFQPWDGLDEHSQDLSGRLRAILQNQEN

[18] = Vero cell cytotoxicity, dose response, cytotoxicity control for Vif-APOBEC3G degradation inhibitor project, Vero cells (AID 1117358); assay type: functional; settings: Human immunodeficiency virus 1, Vero
[19] = biological target: E3 ubiquitin-protein ligase Mdm2 (Homo sapiens, UniProt Q00987); assay: enhancers of MDM2-luciferase reporter signal, concentration-effect titration, project on inhibitors of MDM2 ubiquitin ligase, cellular assay, luminescent readout, 384-well plate format (AID 1394); assay type: functional;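 note: MDM2 E3 inhibitors raise luminescence so EC50 is for signal enhancement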
E3 ubiquitin-protein ligase Mdm2, sequence (Q00987 whole entry): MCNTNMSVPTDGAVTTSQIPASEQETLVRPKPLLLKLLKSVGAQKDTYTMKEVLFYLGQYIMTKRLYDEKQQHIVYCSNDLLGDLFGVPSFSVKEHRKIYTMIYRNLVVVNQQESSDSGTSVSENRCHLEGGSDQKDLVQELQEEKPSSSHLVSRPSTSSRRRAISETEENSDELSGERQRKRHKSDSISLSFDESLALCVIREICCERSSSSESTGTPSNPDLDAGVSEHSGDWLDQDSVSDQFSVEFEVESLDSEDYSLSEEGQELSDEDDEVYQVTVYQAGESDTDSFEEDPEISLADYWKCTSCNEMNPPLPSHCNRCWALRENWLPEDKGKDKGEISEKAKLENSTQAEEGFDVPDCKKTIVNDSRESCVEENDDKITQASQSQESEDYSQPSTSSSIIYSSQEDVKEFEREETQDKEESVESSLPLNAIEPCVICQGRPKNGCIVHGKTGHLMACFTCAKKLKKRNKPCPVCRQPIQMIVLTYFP

Protein Rev = Protein Rev (Human immunodeficiency virus type 1 group M subtype B (isolate HXB2)(HIV-1), UniProt P04618); assay: inhibitors of Rev binding to RRE RNA, dose response, biochemical, fluorescence polarization, HIV-1 (AID 434976); parameters: species or system Human immunodeficiency virus 1
Protein Rev, sequence (P04618 whole entry): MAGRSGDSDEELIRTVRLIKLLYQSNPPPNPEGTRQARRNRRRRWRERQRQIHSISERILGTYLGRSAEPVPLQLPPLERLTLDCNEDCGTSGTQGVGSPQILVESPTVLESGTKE

[20] = biological target: Female germline-specific tumor suppressor gld-1 (Caenorhabditis elegans, UniProt Q17339); assay: inhibitors of GLD-1 binding to TGE RNA, dose response, biochemical, fluorescence polarization, C. elegans (AID 2802);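 note: fluorescence polarization of labeled TGE RNA bound by purified gld-1 protein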
Female germline-specific tumor suppressor gld-1, sequence (Q17339 whole entry): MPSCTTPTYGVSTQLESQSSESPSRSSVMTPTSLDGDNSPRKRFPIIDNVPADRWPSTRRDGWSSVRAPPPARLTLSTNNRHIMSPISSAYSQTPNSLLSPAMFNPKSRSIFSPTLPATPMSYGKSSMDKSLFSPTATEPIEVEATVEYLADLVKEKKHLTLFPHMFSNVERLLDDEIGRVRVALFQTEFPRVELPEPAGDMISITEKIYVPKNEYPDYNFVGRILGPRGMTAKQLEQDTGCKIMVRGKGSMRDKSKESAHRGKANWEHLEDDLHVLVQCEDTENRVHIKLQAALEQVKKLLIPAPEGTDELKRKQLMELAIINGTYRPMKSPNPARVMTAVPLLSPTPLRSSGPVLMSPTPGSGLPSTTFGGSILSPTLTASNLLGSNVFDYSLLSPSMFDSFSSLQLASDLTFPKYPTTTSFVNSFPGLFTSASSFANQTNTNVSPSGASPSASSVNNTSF

[21] = biological target: Polyadenylate-binding protein 1 (Homo sapiens, UniProt P11940); assay: PABP poly(A) RNA binding inhibitors, primary screen, biochemical, fluorescence polarization, uHTS (AID 2014)
Polyadenylate-binding protein 1, sequence (P11940 whole entry): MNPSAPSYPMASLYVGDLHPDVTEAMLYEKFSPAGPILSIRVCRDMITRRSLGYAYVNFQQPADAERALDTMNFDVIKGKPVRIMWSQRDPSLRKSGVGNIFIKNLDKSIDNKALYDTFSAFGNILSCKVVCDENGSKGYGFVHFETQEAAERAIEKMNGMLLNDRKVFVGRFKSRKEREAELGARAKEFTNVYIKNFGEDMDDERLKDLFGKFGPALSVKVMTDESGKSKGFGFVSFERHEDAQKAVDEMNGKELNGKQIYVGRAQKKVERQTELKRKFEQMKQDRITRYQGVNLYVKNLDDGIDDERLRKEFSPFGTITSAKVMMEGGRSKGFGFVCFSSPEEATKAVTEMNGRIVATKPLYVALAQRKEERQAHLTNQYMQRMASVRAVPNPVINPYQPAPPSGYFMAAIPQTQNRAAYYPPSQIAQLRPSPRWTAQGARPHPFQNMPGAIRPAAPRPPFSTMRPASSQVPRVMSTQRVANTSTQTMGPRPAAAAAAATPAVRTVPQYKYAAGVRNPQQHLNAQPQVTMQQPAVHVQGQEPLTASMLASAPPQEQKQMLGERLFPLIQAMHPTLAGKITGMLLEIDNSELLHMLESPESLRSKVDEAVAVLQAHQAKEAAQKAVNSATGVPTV

[22] = biological target: Eukaryotic translation initiation factor 4H (Homo sapiens, UniProt Q15056); assay: human eIF4H binding inhibitors, primary screen, translation initiation inhibitor project, biochemical, uHTS, fluorescence polarization (AID 2012)
[23] = biological target: T4, Alkaline phosphatase, tissue-nonspecific isozyme (Homo sapiens, UniProt P05186)
T4 sequence (P05186 whole entry): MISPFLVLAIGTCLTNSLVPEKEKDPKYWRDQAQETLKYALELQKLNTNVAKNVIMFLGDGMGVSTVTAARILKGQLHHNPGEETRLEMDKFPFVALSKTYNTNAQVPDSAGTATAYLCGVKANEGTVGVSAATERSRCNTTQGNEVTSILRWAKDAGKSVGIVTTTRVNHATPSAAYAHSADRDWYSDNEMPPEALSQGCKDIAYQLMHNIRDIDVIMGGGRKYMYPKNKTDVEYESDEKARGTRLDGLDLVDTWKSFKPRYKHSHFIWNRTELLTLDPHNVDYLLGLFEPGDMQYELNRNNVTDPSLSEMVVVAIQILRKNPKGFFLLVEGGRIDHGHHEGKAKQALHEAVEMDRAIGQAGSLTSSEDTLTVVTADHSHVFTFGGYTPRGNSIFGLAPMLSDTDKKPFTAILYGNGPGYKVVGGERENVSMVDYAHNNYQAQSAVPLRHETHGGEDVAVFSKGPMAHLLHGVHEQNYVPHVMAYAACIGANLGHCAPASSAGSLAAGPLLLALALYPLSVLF

[24] = biological target: T2, Mannose-6-phosphate isomerase; assay: human PMI inhibitors, high substrate, primary screen, biochemical, fluorescence intensity, high mannose 6-phosphate (AID 1220)
cells = settings: HEK293
[25] = HeLa 2N DNA content increase, dose response, cell-based, IC50 (AID 1117349); assay type: functional
[26] = HeLa 4N DNA content increase, dose response, cell-based, IC50 (AID 1117351); assay type: functional

SMILES: CC1CCCN(CC(O)CN)C1 (stereo unspecified)
- IC50 [1]: > 83.3 µM (inactive)
- IC50 [2]: > 109 µM (inactive)

SMILES: Cc1c(C(=O)O/N=C(\N)c2ccccn2)cccc1[N+](=O)[O-]
- IC50 [3]: > 67.6 µM (inactive)
- EC50 [4]: > 67.6 µM (inactive)

SMILES: O=C(CCl)Nc1ccccc1Sc1ccccc1
- IC50 [5]: > 80 µM (inactive)

SMILES: CCC(=O)N1CCc2cc(S(=O)(=O)NCCC(=O)NC3CCCc4ccccc43)ccc21 (stereo unspecified)
- IC50 [6]: > 100 µM (active)

SMILES: CCn1c(SCC(=O)Nc2cc(C)on2)nnc1-c1cccnc1
- IC50 (Protein Tat): > 100 µM (active)

SMILES: CCOC(=O)[C@H]1[C@H]2COc3cc(OC)ccc3[C@@H]2N2C(=O)c3ccc(C)cc3NC(=O)[C@@]12C
- IC50 [1]: > 83.3 µM (inactive)
- IC50 [2]: > 109 µM (inactive)

SMILES: O=C(/C=C/c1ccc(Cl)c([N+](=O)[O-])c1)c1cccnc1
- AC50 [7]: 56.4 µM (active)
- AC50 [8]: 4.16 µM (active)
- AC50 [9]: 1.31 µM (active)
- EC50 [10]: > 40 µM (inactive)

SMILES: COc1ccc(C(=O)NC(=S)NNC(=O)c2cnccn2)cc1OC
- IC50 [11]: > 50 µM (not active)
- AC50 (INS1): 1.03 µM (active)

SMILES: CC(=O)c1ccc(NC(=O)CSCCO)cc1
- EC50 [12]: > 50 µM (not active)

SMILES: CCOc1ccc(CCNC(=O)CN2C(=O)CCSc3ccccc32)cc1OCC
- EC50 [13]: > 120 µM (not active)

SMILES: O=C1NCCCC2c3cc(O)c4ccccc4c3OC12N1CCCCC1 (stereo unspecified)
- IC50 (Estrogen receptor beta [14]): > 50 µM (not active)
- IC50 (Estrogen receptor beta [15]): 13.6 µM (active)

SMILES: CCN(CC(=O)Nc1c(F)cccc1F)C(=O)c1cccc(-n2cccc2)c1
- IC50 [16]: 15.9 µM (active)
- IC50 [17]: 34.8 µM (active)
- IC50 (Protein Tat): > 100 µM (active)

SMILES: Cc1ccc(S(=O)(=O)N(C)CC(O)Cn2c3ccccc3c3ccccc32)cc1 (stereo unspecified)
- CC50 [18]: > 40 µM (active)

SMILES: Cc1cnc(NC(=O)Nc2ccc(Cl)cc2)s1
- IC50 [5]: > 80 µM (inactive)

SMILES: COc1cccc(-c2nc3ccccc3s2)c1O
- IC50 [3]: > 67.6 µM (inactive)
- EC50 [4]: > 67.6 µM (inactive)

SMILES: COc1ccc(CC(=O)OCn2nnc3ccccc3c2=O)cc1
- CC50 [18]: > 40 µM (active)

SMILES: CCc1nc2oc3cc(OC)ccc3c(=O)c2c(=O)n1Cc1ccco1
- IC50 (Estrogen receptor beta [14]): 0.0586 µM (not active)
- IC50 (Estrogen receptor beta [15]): 30.7 µM (not active)

SMILES: Nc1cccc2c1C(=O)N(C(=O)/C=C/c1cccc(Br)c1)C2=O
- IC50 [6]: > 100 µM (active)
- EC50 [19]: 7.82 µM (active)

SMILES: Cc1ccc(-c2nc(Nc3cccc(O)c3)c3ccccc3n2)cc1
- AC50 [8]: 5.05 µM (active)
- EC50 [10]: 30.6 µM (inactive)

SMILES: CC(CCC(C)C(C)(C)C)[C@@H]1CC[C@H]2C3C[C@H](OS(O)(=S)=S)[C@H]4C[C@H](OS(O)(=S)=S)[C@@H](OS(O)(=S)=S)C[C@]4(C)[C@H]3CC[C@]12C.Nc1ncc[nH]1 (stereo partly specified)
- IC50 (Protein Rev): 8.34 µM (active)
- IC50 [20]: 3.66 µM (active)

SMILES: COc1ccc2c(c1)c1nnc(SC)nc1n2C
- EC50 [13]: > 120 µM (not active)

SMILES: CCN1C(NCc2cc(OC)c(OC)c(OC)c2)=N[C@@H](c2ccccc2)[C@H](C(=O)OC)[C@H]1C
- IC50 [21]: 11.9 µM (active)
- IC50 [22]: > 100 µM (inactive)

SMILES: CC(Oc1ccccc1)C(=O)NNC(=O)c1ccccn1 (stereo unspecified)
- EC50 [23]: 66.5 µM (not active)

SMILES: O=C(NCC(=O)N(c1cccnc1)C(C(=O)NC1CCCC1)c1ccco1)c1cccs1 (stereo unspecified)
- EC50 [12]: > 50 µM (not active)

SMILES: Cc1ccc([N+](=O)[O-])cc1/N=C/C1=C(O)c2ccccc2CC1
- IC50 [24]: > 50 µM (not active)
- IC50 [11]: > 50 µM (not active)

SMILES: c1ccc2c(c1)ncn2CCOc1ccc2c(c1)CCC2
- AC50 (cells): 36.7 µM (active)

SMILES: N#Cc1c(N2CCN(c3ccc(F)cc3)CC2)nc(N)c2c(N)nc3c(c12)CC(=O)N3C1CC1
- IC50 [24]: > 50 µM (not active)

SMILES: CCOc1ccc2nc3cc(N)ccc3c(N)c2c1 [ETHACRIDINE LACTATE]
- IC50 [25]: > 10 µM (inactive)
- IC50 [26]: > 10 µM (inactive)

Reference: ChEMBL document CHEMBL1201862, “PubChem BioAssay data set” (2004)
